System: 653999-131-R-J2-PDC complex spheroids, growth % test/control
Assay: Anticancer human tumor 653999-131-R-J2-PDC patient-derived lung adenocarcinoma cell line growth inhibition [AhR]
Conditions: for IC50: curve of first compound; for viability, T/C: stronger effect = lower value
Method in brief: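 Complex tumor spheroids co-cultured with HUVEC and human MSC stroma; AhR antagonists tested in combination with standard-of-care and investigational agents. Top concentration at or near clinical Cmax (else 10 microM), half-log dilutions; growth expressed as percent test/control.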

[1] = second compound 0.1 µM, first compound 0.0316 µM
[2] = second compound 0.1 µM, first compound 0.1 µM
[3] = second compound 0.1 µM, first compound 0.316 µM
[4] = second compound 0.1 µM, first compound 1 µM
[5] = second compound 0.1 µM, first compound 3.16 µM
[6] = second compound 0.1 µM, first compound 10 µM
[7] = second compound 0.316 µM, first compound 0.0316 µM
[8] = second compound 0.316 µM, first compound 0.1 µM
[9] = second compound 0.316 µM, first compound 0.316 µM
[10] = second compound 0.316 µM, first compound 1 µM
[11] = second compound 0.316 µM, first compound 3.16 µM
[12] = second compound 0.316 µM, first compound 10 µM
[13] = second compound 1 µM, first compound 0.0316 µM
[14] = second compound 1 µM, first compound 0.1 µM
[15] = second compound 1 µM, first compound 0.316 µM
[16] = second compound 1 µM, first compound 1 µM
[17] = second compound 1 µM, first compound 3.16 µM
[18] = second compound 1 µM, first compound 10 µM
[19] = second compound 3.16 µM, first compound 0.0316 µM
[20] = second compound 3.16 µM, first compound 0.1 µM
[21] = second compound 3.16 µM, first compound 0.316 µM
[22] = second compound 3.16 µM, first compound 1 µM
[23] = second compound 3.16 µM, first compound 3.16 µM
[24] = second compound 3.16 µM, first compound 10 µM
[25] = second compound 10 µM, first compound 0.0316 µM
[26] = second compound 10 µM, first compound 0.1 µM
[27] = second compound 10 µM, first compound 0.316 µM
[28] = second compound 10 µM, first compound 1 µM
[29] = second compound 10 µM, first compound 3.16 µM
[30] = second compound 10 µM, first compound 10 µM
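Further: spheroids exposed to agents for seven days.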
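Wherever viability, T/C is given: 100% = DMSO vehicle control viability.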

IC50 (second compound 0.1 µM) [nM]	IC50 (second compound 0.316 µM) [nM]	IC50 (second compound 1 µM) [nM]	IC50 (second compound 3.16 µM) [nM]	IC50 (second compound 10 µM) [nM]	SMILES	viability, T/C [1] [%]	viability, T/C [2] [%]	viability, T/C [3] [%]	viability, T/C [4] [%]	viability, T/C [5] [%]	viability, T/C [6] [%]	viability, T/C [7] [%]	viability, T/C [8] [%]	viability, T/C [9] [%]	viability, T/C [10] [%]	viability, T/C [11] [%]	viability, T/C [12] [%]	viability, T/C [13] [%]	viability, T/C [14] [%]	viability, T/C [15] [%]	also measured
211	222	378	554	166	Nc1ccn(C2OC(CO)C(O)C2(F)F)c(=O)n1 (stereo not given) + Cc1cncc(-c2nc(NCCc3c[nH]c4ccccc34)c3ncn(C(C)C)c3n2)c1	67.8	57.9	45.5	38.2	34.4	33.4	70.9	60.1	45.5	38.4	38.5	35.4	80.1	66.8	50.1	viability, T/C [16]: 42.4%; viability, T/C [17]: 38.5%; viability, T/C [18]: 33.8%; viability, T/C [19]: 82.4%; viability, T/C [20]: 70%; viability, T/C [21]: 56.5%; viability, T/C [22]: 43.5%; viability, T/C [23]: 39.6%; viability, T/C [24]: 41.9%; viability, T/C [25]: 61%; viability, T/C [26]: 55.8%; viability, T/C [27]: 42.4%; viability, T/C [28]: 43.4%; viability, T/C [29]: 33.3%; viability, T/C [30]: 33.2%
841	732	1190	1640	44	COc1cc(C2c3cc4c(cc3C(OC3OC5COC(C)OC5C(O)C3O)C3COC(=O)C23)OCO4)cc(OC)c1O (stereo not given) + Cc1cncc(-c2nc(NCCc3c[nH]c4ccccc34)c3ncn(C(C)C)c3n2)c1	92.3	94.7	58.6	51.5	37.9	28.6	91	79.7	58.1	45.6	39	28.4	93.1	84.3	71	viability, T/C [16]: 49.3%; viability, T/C [17]: 40.9%; viability, T/C [18]: 29%; viability, T/C [19]: 96.4%; viability, T/C [20]: 85.6%; viability, T/C [21]: 69%; viability, T/C [22]: 54.5%; viability, T/C [23]: 44.4%; viability, T/C [24]: 31.2%; viability, T/C [25]: 50.2%; viability, T/C [26]: 47.1%; viability, T/C [27]: 46.2%; viability, T/C [28]: 36.3%; viability, T/C [29]: 31.6%; viability, T/C [30]: 33.8%
